{"source": "patent US9375497B2", "about": "“[F-18]-labeled L-glutamic acid, [F-18]-labeled L-glutamine, derivatives thereof and use thereof and processes for their preparation” (BAYER SCHERING PHARMA AKTIENGESELLSCHAFT, priority 2006, dated 2016)", "key": {"[1]": {"system": "A549 (non-small-cell bronchial carcinoma) cells", "test": "Tumor cell uptake in A549 cells", "assay_type": "cell-based, human", "details": "250 kBq/well, compared to [^18F]FDG", "description": "(§1) For the evaluation of the tumor cell uptake of [^18F]glutamic acid, cell uptake experiments were carried out in human A549 (non-small-cell bronchial carcinoma) and HT29 (colonic carcinoma) cells. The tumor cell uptake of the glutamic acid derivatives was compared to\n(§2) [^18F]FDG (gold standard for oncological PET investigations).\nFIG. 2: Comparison of the time-dependent tumor cell uptake of [^18F]-4-glutamic acid [20-35 μM] (on the left) and [F-18]FDG [2 μM] (on the right) in A549 cells. The cells were incubated with 250 kBq/well. For displacement experiments, L-glutamic acid (1 mM) or glucose (5 mM) was used (mean value±standard deviation, n=3)."}, "[2]": {"system": "HT29 (colonic carcinoma) cells", "test": "Tumor cell uptake in HT29 cells", "assay_type": "cell-based, human", "details": "compared to [^18F]FDG", "description": "as §1, §2"}, "[3]": {"system": "murine F9 teratocarcinoma model in NMRI nude mice", "test": "Tumor enrichment and tissue distribution, F9 teratocarcinoma model", "details": "for Tumor/tissue quotient, Liver: single i.v.", "description": "(§3) For the evaluation of the tumor enrichment and the tissue distribution in experimental animals, [^18F]-4-glutamic acid was tested in a murine F9 teratocarcinoma model in NMRI nude mice and a murine B16F1 melanoma model in C57BI6 mice.\nFor this, 1×10^6 cells (F9) or 5×10^5 cells (B16F1) respectively were suspended in 100 μl of phosphate-buffered physiological saline solution and inoculated subcutaneously into the right, rear flank of the corresponding experimental animal species (NMRI for F9 and 057-BI6 for B16F1) (Berndorff et al. Clin. Cancer Res. 2005, 11, 2005). […] [^18F]-4-Glutamic acid (370 kBq, in 100 μl of physiological saline solution) was administered intravenously to the tail vein. […]"}, "[4]": {"system": "murine B16F1 melanoma model in C57BI6 mice", "test": "Tumor enrichment and tissue distribution, B16F1 melanoma model", "details": "for Tumor/tissue quotient, Ovary: single i.v.; for Tissue uptake, Brain: single i.v. 111 kBq", "description": "as §3\nFor this, 1×10^6 cells (F9) or 5×10^5 cells (B16F1) respectively were suspended in 100 μl of phosphate-buffered physiological saline solution and inoculated subcutaneously into the right, rear flank of the corresponding experimental animal species (NMRI for F9 and 057-BI6 for B16F1) (Berndorff et al. Clin. Cancer Res. 2005, 11, 2005). […] [^18F]-4-Glutamic acid (370 kBq, in 100 μl of physiological saline solution) was administered intravenously to the tail vein. After 15; 60 and 120 min in each case, the animals were killed, organ and tumor removed, weighed and measured for radioactive content."}}, "data": [{"compound": "NC(=O)C([18F])CC(N)C(=O)O", "note": "(centres unmarked) [[^18F]-4-glutamine, 2-amino-4-[F-18]fluoroglutamine]", "values": [{"measurement": "tumor cell uptake", "setting": "[1]", "result": "Analogous uptake results"}, {"measurement": "tumor cell uptake", "setting": "[2]", "result": "Analogous uptake results"}]}, {"compound": "NC(CC(OCC[18F])C(=O)O)C(=O)O", "note": "(centres unmarked) [2-amino-4-(2-[F-18]fluoroethoxy)pentanedicarboxylic acid]", "values": [{"measurement": "tumor cell uptake", "setting": "[1]", "result": "Analogous uptake results"}, {"measurement": "tumor cell uptake", "setting": "[2]", "result": "Analogous uptake results"}]}, {"compound": "NC(CC(CCC[18F])C(=O)O)C(=O)O", "note": "(centres unmarked) [2-amino-4-(3-[F-18]fluoropropyl)pentanedicarboxylic acid]", "values": [{"measurement": "tumor cell uptake", "setting": "[1]", "result": "Analogous uptake results"}, {"measurement": "tumor cell uptake", "setting": "[2]", "result": "Analogous uptake results"}]}, {"compound": "N[C@@H](CC[14C](=O)O)C(=O)O", "note": "[[^14C]5-glutamic acid, reference compound]", "values": [{"measurement": "Tumor/tissue quotient, Liver", "setting": "[3]; 1.0 h (times as Table 5)", "result": 1.31}, {"measurement": "Tumor/tissue quotient, Liver", "setting": "[3]; 4.0 h (times as Table 5)", "result": 1.09}, {"measurement": "tumor enrichment", "setting": "[3]; F9 teratocarcinoma, 1 h after intravenous administration", "result": 0.98, "unit": "% ID/g"}, {"measurement": "maximal tumor enrichment", "setting": "[3]; F9 teratocarcinoma, similarly early time (30 min)", "result": 0.81, "unit": "% ID/g"}, {"measurement": "Tumor/tissue quotient, Ovary", "setting": "[4]; 0.25 h (times as Table 7)", "result": 0.47}, {"measurement": "Tissue uptake, Brain", "setting": "[4]; 0.25 h", "result": 0.22, "unit": "% dose/g"}, {"measurement": "Tumor/tissue quotient, Ovary", "setting": "[4]; 1.0 h (times as Table 7)", "result": 1.01}, {"measurement": "Tissue uptake, Brain", "setting": "[4]; 1.0 h", "result": 0.13, "unit": "% dose/g"}, {"measurement": "Tissue uptake, Brain", "setting": "[4]; 2.0 h", "result": 0.09, "unit": "% dose/g"}, {"measurement": "tumor enrichment", "setting": "[4]; B16F1 melanoma, 1 h after intravenous administration", "result": 1.03, "unit": "% ID/g"}, {"measurement": "maximal tumor enrichment", "setting": "[4]; B16F1 melanoma, \"at the same time\"", "result": 1.23}]}]}
